Measurements as given in patent US20240199572A1, “COMPOUNDS, COMPOSITIONS, AND METHODS FOR TREATING TYPE 2 DIABETES AND DEMENTIA” (THE BOARD OF TRUSTEES OF THE UNIVERSITY OF ILLINOIS, priority 2021, published 2024).
Marks after values point to notes of the source that are not given here.

Tested on: C57Bl/6 male mice on a high fat diet (HFD)
Experiment: High-fat diet (HFD) mice treated with CL2-57
Type: in vivo, mouse
Method: High-Fat Diet and Drug Treatment. C57Bl/6 male mice (Jackson Laboratories) were placed on a high fat diet (HFD) (60% kcal from fat, Envigo) at 5 weeks. At 10 weeks, mice were acclimated to hydrogel replacement of drinking water (Clear H2O) for 3 days. Then, for six weeks while HFD continued, mice received 10 mg/kg CL2-57 oral gavage Mon/Wed/Fri (vehicle: 9.5% PEG-200, 5% DMSO, 0.1% polysorbate 80 in water) plus 10 mg/kg/day CL2-57 in continuous hydrogel, or vehicle control. Mice were weighed weekly. For fast-refed studies, mice fasted for 16 hours, then refed for 4 hours. Blood glucose was measured with handheld glucometer. Sample size, chosen based on previous experience with glucose tolerance test, was ten mice per treatment. Mice were assigned to treatment groups by cage randomization upon arrival from Jackson Laboratories. Mice were assigned a unique ear tag number to enable blinded tissue analysis and data collection. Treatment and in vivo experimentation were not blinded. No animals were excluded from analysis, and no control for confounders such as cage location or treatment order was performed.
Plasma/Liver Triglycerides. Blood was collected in EDTA-coated tubes (Becton Dickinson) and centrifuged (3500 rpm, 15 minutes) to separate plasma. Livers were flash frozen in liquid nitrogen, then stored at −80° C. until homogenization in isopropanol. Triglyceride levels were measured using reagents from Wako Diagnostics per manufacturer's protocol.
Glucose Tolerance Test (GTT). After 16-hour fast, animals were administered 1.5 g/kg body weight (bwt) glucose by intraperitoneal (i.p.) injection. Glucose in tail vein blood was measured at 0, 10, 20, 30, 45, 60, and 120 minutes using a ONETOUCH® […]® glucometer (LifeScan, Inc). Additional blood was collected at multiple points between 0-30 minutes in heparinized capillary tubes and centrifuged, with plasma insulin levels determined by ELISA (ALPCO).
Insulin Sensitivity Studies. Mice were injected with 1 U/kg bwt HUMALOG® insulin or vehicle (n=3 of each per treatment group) 15 minutes before sacrifice. Liver, subcutaneous fat, and gastrocnemius were collected and homogenized in lysis buffer (50 mM Tris-HCl (pH 7.4), 100 mM NaCl, 1 mM EDTA, 1 mM EGTA, 1% Triton™ X-100, with protease/phosphatase inhibitor (Complete, Roche)). Protein concentration was determined using Bradford reagent (Bio-Rad). Denatured protein (30 μg) was separated by SDS-PAGE (Mini-PROTEAN® TGX™ Gels 10%, Bio-Rad) and transferred to 0.45 μm nitrocellulose membranes. Membranes were blocked with 5% skim milk in TBST (1×TBS+0.1% polysorbate 20) for 1 hour, incubated with primary antibodies overnight at 4° C., washed with TBST, and incubated with horseradish peroxidase (HRP)-linked secondary antibodies for 1 hour. After TBST wash, Clarity™ Western ECL Substrate (Bio-Rad) was added. Blots were imaged and analyzed using a ChemiDoc™ MP and Image Lab Ver 6.0 (Bio-Rad). Protein levels were normalized to GAPDH (muscle) or β-actin (liver, adipose) for quantification. Primary antibodies: Cell Signaling Technology 4060 (pS473Akt, RRID:AB_2315049), 13038 (pT308Akt, RRID:AB_2629447), 4691 (pan-Akt, RRID:AB_915783), 5174 (GAPDH, RRID:AB 10622025) and Sigma A2228 (3-actin, RRID:AB_476697).
qRT-PCR. For cell samples, treated cells were lysed with RLT plus lysis buffer (Qiagen). RNA was isolated with Qiagen RNEASY® Plus columns per manufacturer instructions, then reverse-transcribed to cDNA using […]® III Reverse Transcriptase (200 U/μL, Invitrogen) per supplier protocol. qPCR experiments were either performed with TAQMAN® gene expression master mix (Invitrogen) on a StepOne™ qPCR instrument or with […]® SYBR® Green SuperMix (Quanta Biosciences) on CFX Connect™ Real-Time PCR Detection System (BioRad), with fold-change quantified by ΔΔCt. […]

[1] = HFD mice, compared to vehicle control
[2] = plasma, fold change with CL2-57 vs. vehicle in HFD mice

CCOC(=O)c1cccc(NC(=O)c2sc(Cl)cc2S(=O)(=O)N(C)c2ccc(OCC)c(OCC)c2)c1 [CL2-57, ethyl 3-(5-chloro-3-(N-(3,4-diethoxyphenyl)-N-methylsulfamoyl)thiophene-2-carboxamido) benzoate] was tested, and the “Attenuation of HFD increases of plasma proinflammatory lipid mediators (lysophospholipids)” value (HFD mice) was 20-60%, the “Brown adipose or liver mass” value (HFD mice) was “no change” and the “Fall of liver mRNA encoding PPARα” value (HFD mice) was 75%. The Gluconeogenic metabolites (HFD mice) was “reduced”, the “HFD increase of NO precursors arginine and guanidinosuccinate” value (HFD mice) was “reversed” and the “HFD-increased liver oxysterol metabolites 7-hydroxycholesterol and 4-cholesten-3-one” value (HFD mice) was “reversed”. The “Insulin secretion during the first 20 minutes of the GTT” value (HFD mice) was “negligible change”, the “Liver Abcg1 expression” value (HFD mice) was “unchanged” and the “Liver Abcg5 expression” value (HFD mice) was “significantly reduced”. The “Liver Cyp7-a1 mRNA” value (HFD mice) was “diminishing trend”, the “Liver Lpcat3 expression” value (HFD mice) was “significantly reduced” and the “Liver Scd1 expression” value (HFD mice) was “significantly reduced”. For the same compound, the “Liver Srebf1 mRNA” value (HFD mice) was “small increase”, the “Liver cholesterol (reduced in HFD mice)” value (HFD mice) was “normalized to baseline” and the “Liver free fatty acid (FFA) concentrations reduced by” value (HFD mice) was 40-90%. For the same compound, the “Plasma FFAs decreased” value (HFD mice) was 5-20%, the “Plasma levels of cholesterol and oxysterol metabolites” value (HFD mice) was “unaffected” and the “Tissue mass composition by TD-NMR” value (HFD mice) was “shifted tissue mass from fat to lean”. The “Circulating arachidonic acid (AA) increase over diet controls” value (HFD mice treated with CL2-57, vehicle 120%) was 37%, the “Blood glucose concentrations following single i.p. glucose injection” value (HFD mice, GTT, vs vehicle) was “lower” and the “Glucose tolerance test, total area under the curve reduced by” value (HFD mice, after five weeks, 2-hour test) was 20%. The “Decrease in plasma TGs” value [1] was 25%, the “Decrease of liver G6PC expression” value [1] was 73% and the “Decrease of liver Pck1 expression” value [1] was 70%. For the same compound, the “HFD increases of the four gluconeogenic precursors, in particular glutamine and glycerol” value [1] was “attenuated”, the “Liver triglycerides (TGs) reduced by” value [1] was 35% and the “Fasting/refed glucose and insulin levels” value (HFD mice, initially) was “Little change”. For the same compound, the “Adipose Akt phosphorylation” value (HFD mice, insulin challenge) was “No treatment effect”, the “Liver Akt phosphorylation at Ser473 with insulin” value (HFD mice, insulin challenge) was “did not change” and the “Liver Akt phosphorylation at Thr308 with insulin” value (HFD mice, insulin challenge) was “increased”. The “Skeletal muscle insulin sensitivity versus vehicle” value (HFD mice, insulin challenge) was “dramatically increased”, the “Mature, nuclear form of SREBP1c protein” value (HFD mice, liver) was “unchanged” and the “Uncleaved, endoplasmic reticulum form of SREBP1c protein” value (HFD mice, liver) was “corresponding increase”. For the same compound, the “mRNA levels of proinflammatory enzymes, cytokines and chemokines (COX2, NOS2, TNFα, IL-6, CCL2, CXCL10)” value (HFD mice, liver and adipose) was “substantially lowered”, the “Liver ABCA1 protein” value (HFD mice, liver homogenates) was “increased” and the “Liver Abca1 expression” value (HFD mice, liver homogenates) was “increased”. For the same compound, the Lean tissue mass (HFD mice, on average) was “gained”, the Weight gain (HFD mice, over six weeks, vehicle 17%) was 8 % of baseline and the “White adipose tissue mass reduced by, proportional to body weight” value (HFD mice, visceral (renal) and superficial (inguinal) fat pads) was greater than 20%. The “Liver monoacylglycerols (MAGs) decreased” value (compared to HFD alone) was 83-97%, the “Creatinine, urea, and bilirubin” value (markers of global inflammation and/or organ toxicity) was “unaffected” and the “1-Arachidonoyl-GPA (20:4), HED Drug/ Chow Veh” value [2] was 0.65^†. The “1-Arachidonoyl-GPC (20:4n6), HED Drug/ Chow Veh” value [2] was 0.73^††, the “1-Arachidonoyl-GPE (20:4n6), HED Drug/ Chow Veh” value [2] was 0.73^†† and the “1-Arachidonoyl-GPI (20:4), HED Drug/ Chow Veh” value [2] was 0.75^†. The “1-Lignoceroyl-GPC (24:0), HED Drug/ Chow Veh” value [2] was 0.99, the “1-Linolenoyl-GPC (18:3), HED Drug/ Chow Veh” value [2] was 0.85 and the “1-Linoleoyl-GPA (18:2), HED Drug/ Chow Veh” value [2] was 0.57^††. The “1-Linoleoyl-GPC (18:2), HED Drug/ Chow Veh” value [2] was 0.81^†, the “1-Linoleoyl-GPE (18:2), HED Drug/ Chow Veh” value [2] was 0.81 and the “1-Linoleoyl-GPG (18:2), HED Drug/ Chow Veh” value [2] was 0.75^†. For the same compound, the “1-Linoleoyl-GPI (18:2), HED Drug/ Chow Veh” value [2] was 0.72, the “1-Linoleoyl-GPS (18:2), HED Drug/ Chow Veh” value [2] was 0.39^†† and the “1-Oleoy1-GPI (18:1), HED Drug/ Chow Veh” value [2] was 0.58^†. The “1-Oleoyl-GPC (18:1), HED Drug/ Chow Veh” value [2] was 0.84, the “1-Oleoyl-GPE (18:1), HED Drug/ Chow Veh” value [2] was 0.79 and the “1-Oleoyl-GPS (18:1), HED Drug/ Chow Veh” value [2] was 0.62^†. For the same compound, the “1-Palmitoleoyl-GPC (16:1), HED Drug/ Chow Veh” value [2] was 0.81, the “1-Palmitoyl-GPA (16:0), HED Drug/ Chow Veh” value [2] was 0.64^†† and the “1-Palmitoyl-GPC (16:0), HED Drug/ Chow Veh” value [2] was 0.83^†. The “1-Palmitoyl-GPE (16:0), HED Drug/ Chow Veh” value [2] was 0.95, the “1-Palmitoyl-GPI (16:0), HED Drug/ Chow Veh” value [2] was 0.56^†† and the “1-Palmitoyl-GPS (16:0), HED Drug/ Chow Veh” value [2] was 0.77. The “1-Stearoyl-GPC (18:0), HED Drug/ Chow Veh” value [2] was 0.94, the “1-Stearoyl-GPE (18:0), HED Drug/ Chow Veh” value [2] was 0.91 and the “1-Stearoyl-GPI (18:0), HED Drug/ Chow Veh” value [2] was 0.82. The “2-Palmitoleoyl-GPC (16:1), HED Drug/ Chow Veh” value [2] was 1.08, the “2-Palmitoyl-GPC (16:0), HED Drug/ Chow Veh” value [2] was 0.81 and the “2-Stearoyl-GPE (18:0), HED Drug/ Chow Veh” value [2] was 0.74^††. The “Docosahexaenoate (DPA; 22:6n3), HED Drug/ Chow Veh” value [2] was 0.76, the “Docosapentaenoate (n3 DPA; 22:5n3), HED Drug/ Chow Veh” value [2] was 0.60^† and the “Docosapentaenoate (n6 DPA; 22:5n6), HED Drug/ Chow Veh” value [2] was 0.92. For the same compound, the “Eicosapentaenoate (EPA; 20:5n3), HED Drug/ Chow Veh” value [2] was 0.60^†, the “Sphingadienine, HED Drug/ Chow Veh” value [2] was 0.55^†† and the “Sphinganine, HED Drug/ Chow Veh” value [2] was 0.67^††. For the same compound, the “Sphinganine-1-phosphate, HED Drug/ Chow Veh” value [2] was 0.73, the “Sphingosine, HED Drug/ Chow Veh” value [2] was 0.73 and the “Sphingosine-1-phosphate, HED Drug/ Chow Veh” value [2] was 0.93.
